Experimental data as given in patent US9334229B2, “Hydroxytyrosol derivatives, their method of preparation and use in personal care” (Eastman Chemical Company, priority 2013, dated 2016).

How the values were obtained:
[1] = Control reaction without enzyme (toluene / pH 7 phosphate buffer); type: physicochemical
Method: 3,4-Bis(ethoxycarbonyloxy)phenethyl palmitate (100 mg; 0.186 mmol) was dissolved in 2 mL of toluene. […] The mixture was stirred vigorously and periodically analyzed by HPLC. After 24 h, LC analysis indicated 75.4% conversion of Compound 2 to hydroxytyrosol. After 48 h, LC analysis indicated 82.6% conversion of Compound 2 to hydroxytyrosol.

[2] = target: T1, Novozyme 435 (Candida antarctica lipase B immobilized on an acrylic resin) (Moesziomyces antarcticus, UniProt P41365); assay: Enzymatic hydrolysis with Novozyme 435 in toluene / pH 7 phosphate buffer, conversion to hydroxytyrosol by HPLC; type: in vitro ADME; settings: 100 mg compound, 100 mg Novozyme 435, toluene / pH 7 phosphate buffer, LC analysis
T1 construct: purchased Novozyme 435
Method: (§1) 3,4-Bis(ethoxycarbonyloxy)phenethyl palmitate (100 mg; 0.186 mmol) was dissolved in 2 mL of toluene. Novozyme 435 (Candida antarctica lipase B immobilized on an acrylic resin) (100 mg) was added followed by 2 mL of pH 7 phosphate buffer. The mixture was stirred vigorously and periodically analyzed by HPLC. After 24 h, LC analysis indicated 75.4% conversion of Compound 2 to hydroxytyrosol. After 48 h, LC analysis indicated 82.6% conversion of Compound 2 to hydroxytyrosol.
as §1, with “Hydroxytyrosol trihexanoate from Comparative Example 8” for “3,4-Bis(ethoxycarbonyloxy)phenethyl palmitate”, “0.223” for “0.186”, “resin)(100” for “resin) (100”, “<1%” for “75.4%”, “hydroxytyrosol trihexanoate” for “Compound 2”, “<1%” for “82.6%”

T1 sequence (P41365 26-342): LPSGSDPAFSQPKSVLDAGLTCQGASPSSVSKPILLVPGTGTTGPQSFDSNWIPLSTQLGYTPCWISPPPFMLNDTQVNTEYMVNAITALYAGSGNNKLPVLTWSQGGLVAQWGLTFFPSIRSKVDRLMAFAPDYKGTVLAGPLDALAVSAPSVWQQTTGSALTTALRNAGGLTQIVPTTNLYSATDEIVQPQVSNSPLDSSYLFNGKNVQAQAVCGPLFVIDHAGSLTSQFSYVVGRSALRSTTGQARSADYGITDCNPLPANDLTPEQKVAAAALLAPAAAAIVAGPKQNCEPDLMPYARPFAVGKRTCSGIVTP

| SMILES | conversion to hydroxytyrosol in control reaction without enzyme [1] | Enzymatic conversion to hydroxytyrosol ([2]; after 24 h) | Enzymatic conversion to hydroxytyrosol ([2]; after 24 h, listed as hydroxytyrosol trihexanoate) | Enzymatic conversion to hydroxytyrosol ([2]; after 48 h) | Enzymatic conversion to hydroxytyrosol ([2]; after 48 h, listed as hydroxytyrosol trihexanoate) |
| --- | --- | --- | --- | --- | --- |
| CCCCCCCCCCCCCCCC(=O)OCCc1ccc(OC(=O)OCC)c(OC(=O)OCC)c1 [Compound 2, 3,4-Bis(ethoxycarbonyloxy)phenethyl palmitate] | no conversion |  |  |  |  |
| CCCCCC(=O)OCCc1ccc(OC(=O)CCCCC)c(OC(=O)CCCCC)c1 [Hydroxytyrosol trihexanoate, Hydroxytyrosol Trihexanoate] |  | <1% | < 1% | <1% | < 1% |
